Publication PMC3501500, “Conformational Selection Underlies Recognition of a Molybdoenzyme by Its Dedicated Chaperone” (PLoS ONE, 2012)

Columns and labels:
NarJ = conditions: NMR; isolated NarG(1–15) peptide vs NarJ-bound; ref [18]; cited from earlier work
NarG(1–15) peptide = target: T1, NarG(1–15) peptide (Escherichia coli, UniProt P09152); conditions: 2 µM NarJT, 50 mM Tris-HCl pH 7.5, 1 mM MgCl2, 296 K; peptide stock 50 µM
T1 sequence (P09152 whole entry, looked up): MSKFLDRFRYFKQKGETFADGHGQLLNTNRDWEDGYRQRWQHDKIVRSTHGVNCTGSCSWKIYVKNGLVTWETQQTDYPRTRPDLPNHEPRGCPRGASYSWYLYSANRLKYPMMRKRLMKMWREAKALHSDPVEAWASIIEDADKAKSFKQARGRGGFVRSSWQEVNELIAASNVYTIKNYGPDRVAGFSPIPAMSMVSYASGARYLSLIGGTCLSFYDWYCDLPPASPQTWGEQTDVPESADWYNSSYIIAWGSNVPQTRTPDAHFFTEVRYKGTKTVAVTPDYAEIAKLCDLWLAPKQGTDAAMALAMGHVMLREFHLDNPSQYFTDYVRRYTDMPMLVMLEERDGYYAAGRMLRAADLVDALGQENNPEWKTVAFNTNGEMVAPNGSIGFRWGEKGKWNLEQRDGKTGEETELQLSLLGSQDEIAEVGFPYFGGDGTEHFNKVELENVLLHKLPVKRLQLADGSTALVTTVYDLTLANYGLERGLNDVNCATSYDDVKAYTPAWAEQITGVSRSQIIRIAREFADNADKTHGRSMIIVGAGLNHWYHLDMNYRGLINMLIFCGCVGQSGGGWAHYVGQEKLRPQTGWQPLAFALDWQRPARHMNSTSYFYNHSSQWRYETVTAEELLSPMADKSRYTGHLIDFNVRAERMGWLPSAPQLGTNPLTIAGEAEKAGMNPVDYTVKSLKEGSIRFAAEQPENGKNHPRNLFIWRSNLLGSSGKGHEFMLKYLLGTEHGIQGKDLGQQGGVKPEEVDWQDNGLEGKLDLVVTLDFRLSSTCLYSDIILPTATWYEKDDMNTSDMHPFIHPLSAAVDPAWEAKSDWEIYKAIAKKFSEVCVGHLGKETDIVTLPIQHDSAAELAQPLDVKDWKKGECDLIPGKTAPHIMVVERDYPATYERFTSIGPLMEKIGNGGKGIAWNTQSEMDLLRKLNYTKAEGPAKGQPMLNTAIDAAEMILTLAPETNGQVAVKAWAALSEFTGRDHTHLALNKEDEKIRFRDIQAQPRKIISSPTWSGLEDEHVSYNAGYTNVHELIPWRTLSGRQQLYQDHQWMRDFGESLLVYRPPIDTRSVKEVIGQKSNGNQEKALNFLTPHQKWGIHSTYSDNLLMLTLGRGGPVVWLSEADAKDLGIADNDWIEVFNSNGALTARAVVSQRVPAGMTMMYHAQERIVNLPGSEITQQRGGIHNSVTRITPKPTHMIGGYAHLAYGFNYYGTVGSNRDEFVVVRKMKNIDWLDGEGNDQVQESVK
Procedure: Tryptophan fluorescence spectroscopy
Increasing concentrations of NarG(1–15) peptide at 50 µM (initial concentration) were then added and the emission fluorescence was scanned. Excitation was at 285 nm and emission was recorded from 310 to 410 nm with excitation and emission band-passes at 2 nm. […] Dissociation constants were calculated by plotting relative fluorescence peak integration against ligand concentration and curve-fitting using Origin software.
Indicated values are the average of at least three independent measurements.

Substance: NarG(1–15) peptide: N-terminal NarG peptide, first 15 residues, chemically synthesized and purified by Synprosis (MSKFLDRFRYFKQKG; UniProt P09152 1-15, looked up, fragment)
- structure of peptide upon NarJ binding (in words) (NarJ): remains unchanged upon NarJ binding
- maximal decrease of the tryptophan fluorescence of NarJT upon peptide addition (NarG(1–15) peptide): 30%
